Article PMC11178545, “Alkynyl nicotinamides show antileukemic activity in drug-resistant acute myeloid leukemia” (The Journal of Clinical Investigation, 2024)
Values joined by “and” are separate entries in the source; they are usually repeats but may differ in a detail not shown here. Equal entries are not always repeated. Where two headings read alike, the source gives them in different places.

Experiments:
[1] = test system: BaF3 cells expressing FLT3ITD; test: BaF3 proliferation, colorimetric WST-1 assay; format: cell-based, murine; details: for proliferation, colorimetric assay: BaF3/FLT3 ITD, 48 hours, replicates; for IC50: Mus musculus
[2] = test system: BaF3 cells expressing FLT3ITD-D835Y; test: BaF3 proliferation, colorimetric WST-1 assay; details: for proliferation, colorimetric assay: BaF3/FLT3 ITD-D835Y, 48 hours, replicates; for IC50: Mus musculus, BaF3, read-out: IC50, growth inhibition
[3] = test system: BaF3 cells transduced with Flt3ITD/ITD, with IL3; test: BaF3 Flt3ITD/ITD proliferation in the presence of IL3 (Supplementary Figure 3A); details: replicates
[4] = concentration 0.016 (unit not given)
[5] = concentration 0.08 (unit not given)
[6] = concentration 0.4 (unit not given)
[7] = concentration 2 (unit not given)
[8] = concentration 10 (unit not given)
[9] = concentration 50 (unit not given)
[10] = concentration 250 (unit not given)
[11] = concentration 1000 (unit not given)
[12] = concentration 5000 (unit not given)
[13] = concentration 0.08 (unit not given), listed as Midostuarin
[14] = concentration 0.4 (unit not given), listed as Midostuarin
[15] = concentration 2 (unit not given), listed as Midostuarin
[16] = concentration 10 (unit not given), listed as Midostuarin
[17] = concentration 50 (unit not given), listed as Midostuarin
[18] = concentration 250 (unit not given), listed as Midostuarin
[19] = concentration 1000 (unit not given), listed as Midostuarin

Compound	proliferation, colorimetric assay [1, 4]	proliferation, colorimetric assay [1, 5]	proliferation, colorimetric assay [1, 6]	proliferation, colorimetric assay [1, 7]	proliferation, colorimetric assay [1, 8]	proliferation, colorimetric assay [1, 9]	proliferation, colorimetric assay [1, 10]	proliferation, colorimetric assay [2, 4]	proliferation, colorimetric assay [2, 5]	proliferation, colorimetric assay [2, 6]	proliferation, colorimetric assay [2, 7]	proliferation, colorimetric assay [2, 8]	proliferation, colorimetric assay [2, 9]	proliferation, colorimetric assay [2, 10]	proliferation, colorimetric assay [2, 11]	IC50 [2] [µM]	Supplementary Figure 3A - BaF3-ITD+IL3 proliferation [3, 4]	Supplementary Figure 3A - BaF3-ITD+IL3 proliferation [3, 5]	Supplementary Figure 3A - BaF3-ITD+IL3 proliferation [3, 6]	Supplementary Figure 3A - BaF3-ITD+IL3 proliferation [3, 7]	also measured
CNC(=O)c1cc(Oc2ccc(NC(=O)Nc3ccc(Cl)c(C(F)(F)F)c3)cc2)ccn1 [Sorafenib]	16.3815 and 107.167 and 106.617 and 105.393	11.5881 and 112.929 and 104.573 and 131.213	10.6541 and 113.594 and 9.4402 and 110.22	98.6784 and 107.329 and 5.2213 and 125.689	18.373 and 31.6289 and 5.419 and 106.507	7.163 and 11.5817 and 3.098 and 23.7431	5.383 and 5.798 and 3.082 and 8.355	94.7245	78.2586 and 100.59 and 93.5618	71.3463 and 101.258 and 87.9764	114.498 and 101.128 and 64.2837	112.637 and 109.063 and 80.4355	116.564 and 100.156 and 98.1229	119.18 and 103.897 and 90.2769	83.0213 and 52.2833	1.09	102.183	99.8176	106.455	107.595 and 105.229 and 115.278	IC50 ([1]; BaF3 FLT3ITD, read-out: IC50, growth inhibition): 0.0009 µM; Supplementary Figure 3A - BaF3-ITD+IL3 proliferation [3, 8]: 111.02 and 105.412 and 136.419; Supplementary Figure 3A - BaF3-ITD+IL3 proliferation [3, 9]: 101.081 and 115.196 and 123.039; Supplementary Figure 3A - BaF3-ITD+IL3 proliferation [3, 10]: 102.541 and 117.007 and 139.808; Supplementary Figure 3A - BaF3-ITD+IL3 proliferation [3, 11]: 122.84 and 135.916; Supplementary Figure 3A - BaF3-ITD+IL3 proliferation [3, 12]: 77.5171 and 4.823
Cc1ccc(C(=O)Nc2ccc(CN3CCN(C)CC3)c(C(F)(F)F)c2)cc1C#Cc1cnc2cccnn12 [Ponatinib]	103.303 and 29.4843 and 104.802 and 107.771	103.551 and 112.425 and 114.204	63.9851 and 109.481 and 101.917	12.349 and 96.4027 and 63.939 and 105.862	7.628 and 22.9278 and 11.2521 and 38.4511	2.92 and 5.376 and 0.7258 and 6.47	5.173 and 2.723 and -0.4582 and 0.3438	105.632	110.397 and 108.415 and 100.457	112.735 and 103.362 and 108.642	92.8711 and 101.44 and 100.79	111.954 and 107.659	78.5183 and 101.652 and 95.7414	19.3842 and 49.6264 and 16.1584	2.173 and 0.6094	0.163	100.2	100.413	94.562	103.021 and 110.146 and 131.879	IC50 ([1]; BaF3, read-out: IC50, growth inhibition): 0.00254 µM; Supplementary Figure 3A - BaF3-ITD+IL3 proliferation [3, 8]: 104.504 and 106.518 and 133.143; Supplementary Figure 3A - BaF3-ITD+IL3 proliferation [3, 9]: 106.029 and 102.109 and 134.35; Supplementary Figure 3A - BaF3-ITD+IL3 proliferation [3, 10]: 109.055 and 106.007 and 134.452; Supplementary Figure 3A - BaF3-ITD+IL3 proliferation [3, 11]: 75.4094 and 10.3894; Supplementary Figure 3A - BaF3-ITD+IL3 proliferation [3, 12]: 0.9902 and -0.5808
CO[C@@H]1[C@H](N(C)C(=O)c2ccccc2)C[C@H]2O[C@]1(C)n1c3ccccc3c3c4c(c5c6ccccc6n2c5c31)C(=O)NC4 [Midostaurin]								103.305									91.5686		100.9		proliferation, colorimetric assay ([1]; concentration 0.016 (unit not given), listed as Midostuarin): 100.822 and 110.628 and 104.388; proliferation, colorimetric assay [1, 13]: 99.3158 and 113.294 and 110.094 and 38.1922; proliferation, colorimetric assay [1, 14]: 103.096 and 110.499 and 104.386 and 61.929; proliferation, colorimetric assay [1, 15]: 104.186 and 115.142 and 102.467 and 142.341; proliferation, colorimetric assay [1, 16]: 37.6324 and 34.6342 and 45.0183 and 96.6129; proliferation, colorimetric assay [1, 17]: 6.377 and 12.3055 and 3.243 and 9.898; proliferation, colorimetric assay [1, 18]: 0.5457 and 1.807 and -0.6585 and 0.387; proliferation, colorimetric assay [2, 13]: 108.476 and 93.9081; proliferation, colorimetric assay [2, 14]: 108.102 and 98.6805 and 100.719; proliferation, colorimetric assay [2, 15]: 111.763 and 100.839 and 106.043; proliferation, colorimetric assay [2, 16]: 46.6696 and 71.6598 and 33.3064; proliferation, colorimetric assay [2, 17]: 14.4574 and 14.3192 and 6.786; proliferation, colorimetric assay [2, 18]: 11.4376 and 9.499 and 3.744; proliferation, colorimetric assay [2, 19]: 3.105 and 1.155; Supplementary Figure 3A - BaF3-ITD+IL3 proliferation [3, 15]: 105.72 and 98.3726 and 124.683; Supplementary Figure 3A - BaF3-ITD+IL3 proliferation [3, 16]: 110.807 and 113.1 and 132.819; Supplementary Figure 3A - BaF3-ITD+IL3 proliferation [3, 17]: 106.186 and 111.038 and 133.216; Supplementary Figure 3A - BaF3-ITD+IL3 proliferation [3, 18]: 110.669 and 139.596; Supplementary Figure 3A - BaF3-ITD+IL3 proliferation [3, 19]: 9.826 and 146.156; Supplementary Figure 3A - BaF3-ITD+IL3 proliferation ([3]; concentration 5000 (unit not given), listed as Midostuarin): 3.94 and -0.5106
